Reference: patent US8829010B2, “Pyrazolo[3,4-d]pyrimidine compounds and their use as PDE2 inhibitors and/or CYP3A4 inhibitors” (Pfizer Inc., priority 2011, dated 2014)
Values joined by “and” are separate entries in the source; they are usually repeats but may differ in a detail not shown here. Equal values may be shown once. Read-outs that look alike come from different tables or passages of the source.

Legend:
[1] = target: CYP3A4 versus CYP3A5 (Homo sapiens (Human), UniProt P08684); test: in vitro
CYP3A4 versus CYP3A5, sequence (P08684 whole entry): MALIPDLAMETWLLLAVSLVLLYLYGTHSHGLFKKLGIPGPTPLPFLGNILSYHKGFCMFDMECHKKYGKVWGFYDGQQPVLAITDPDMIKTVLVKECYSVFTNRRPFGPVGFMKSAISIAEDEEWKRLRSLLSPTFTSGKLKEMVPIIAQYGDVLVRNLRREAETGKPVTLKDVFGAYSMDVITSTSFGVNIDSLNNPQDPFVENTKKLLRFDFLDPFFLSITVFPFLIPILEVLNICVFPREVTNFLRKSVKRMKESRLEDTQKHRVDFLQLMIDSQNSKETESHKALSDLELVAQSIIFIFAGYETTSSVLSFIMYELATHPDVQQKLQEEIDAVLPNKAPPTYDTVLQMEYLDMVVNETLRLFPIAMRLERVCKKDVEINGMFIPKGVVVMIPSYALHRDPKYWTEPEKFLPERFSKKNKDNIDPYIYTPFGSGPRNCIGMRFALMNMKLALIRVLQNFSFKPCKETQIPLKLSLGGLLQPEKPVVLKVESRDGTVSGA

[2] = target: CYP3A5 (Homo sapiens (Human), UniProt P20815); test: biochemical
CYP3A5, sequence (P20815 whole entry): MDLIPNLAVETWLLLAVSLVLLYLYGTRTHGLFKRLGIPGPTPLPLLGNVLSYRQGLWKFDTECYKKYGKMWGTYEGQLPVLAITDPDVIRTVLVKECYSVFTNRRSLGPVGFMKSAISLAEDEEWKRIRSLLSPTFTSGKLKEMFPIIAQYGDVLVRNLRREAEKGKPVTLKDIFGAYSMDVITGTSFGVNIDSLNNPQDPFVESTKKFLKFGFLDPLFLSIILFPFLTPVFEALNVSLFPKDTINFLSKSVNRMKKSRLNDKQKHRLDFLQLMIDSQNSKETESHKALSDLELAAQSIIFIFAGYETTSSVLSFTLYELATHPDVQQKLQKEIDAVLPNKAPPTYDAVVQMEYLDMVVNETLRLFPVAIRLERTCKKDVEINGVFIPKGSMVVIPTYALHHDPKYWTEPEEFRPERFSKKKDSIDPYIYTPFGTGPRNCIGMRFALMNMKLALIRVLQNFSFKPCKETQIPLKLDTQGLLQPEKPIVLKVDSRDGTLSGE

[3] = target: T1, human full-length PDE2A3 enzyme (Homo sapiens (Human), UniProt O00408); test: Recombinant human PDE2A3 inhibition by [3H]-cGMP scintillation proximity assay (SPA); format: biochemical
T1 sequence (O00408 whole entry): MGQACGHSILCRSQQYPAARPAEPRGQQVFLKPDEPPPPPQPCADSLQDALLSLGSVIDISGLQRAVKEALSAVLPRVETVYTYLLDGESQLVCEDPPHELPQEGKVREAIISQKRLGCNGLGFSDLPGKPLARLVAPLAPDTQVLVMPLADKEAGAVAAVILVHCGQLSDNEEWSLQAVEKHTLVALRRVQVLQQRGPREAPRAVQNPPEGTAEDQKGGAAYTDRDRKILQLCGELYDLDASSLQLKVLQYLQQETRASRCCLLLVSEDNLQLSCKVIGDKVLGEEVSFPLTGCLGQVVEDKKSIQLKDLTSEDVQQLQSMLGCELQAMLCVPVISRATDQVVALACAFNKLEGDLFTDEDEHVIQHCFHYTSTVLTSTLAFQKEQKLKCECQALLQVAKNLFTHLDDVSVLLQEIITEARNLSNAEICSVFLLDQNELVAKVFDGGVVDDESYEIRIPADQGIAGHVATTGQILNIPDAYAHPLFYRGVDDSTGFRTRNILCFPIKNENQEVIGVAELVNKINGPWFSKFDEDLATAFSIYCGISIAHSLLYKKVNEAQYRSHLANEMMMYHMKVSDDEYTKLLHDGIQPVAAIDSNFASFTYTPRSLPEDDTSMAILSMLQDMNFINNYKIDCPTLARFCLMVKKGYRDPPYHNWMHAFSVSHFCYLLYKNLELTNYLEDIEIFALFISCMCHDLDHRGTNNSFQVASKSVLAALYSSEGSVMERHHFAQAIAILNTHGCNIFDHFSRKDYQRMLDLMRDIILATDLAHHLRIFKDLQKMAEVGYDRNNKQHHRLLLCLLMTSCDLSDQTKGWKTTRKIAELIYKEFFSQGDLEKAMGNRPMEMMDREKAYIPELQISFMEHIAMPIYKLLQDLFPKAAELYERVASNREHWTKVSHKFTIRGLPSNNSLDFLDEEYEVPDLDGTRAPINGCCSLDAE

[4] = target: CYP3A4 (Homo sapiens (Human), UniProt P08684); test: biochemical
CYP3A4, sequence (P08684 whole entry): as the sequence (P08684 whole entry) above

[5] = target: T1, human full-length PDE2A3 enzyme; details: literature values; IC50 values obtained were within 3× of these; read-out: PDE2 IC50, literature values of control compounds; cited from earlier work
[6] = Geometric mean of 2-5 determinations unless otherwise indicated (a: single determination; b: 7-8 determinations)

Molecule | IC50 [2] | IC50 [4] | IC50 [3, 6] | also measured
3-[5-(4-chloro-3- fluorophenyl)-1- methyl-1H-pyrazol- 4-yl]-1-methyl-4-[3- (1-methyl-1H- pyrazol-3- yl)azetidin-1-yl]-1H- pyrazolo[3,4- d]pyrimidine [Example 19] | – | – | – | IC50 [3]: < 2.87 nM
COC(=O)NC1CN(c2ncnc3c2c(-c2cnn(C)c2-c2ccc(C4CC4)cc2)nn3C)C1 [Example 23, methyl (1-{3-[5-(4-cyclopropylphenyl)-1-methyl-1H-pyrazol-4-yl]-1-methyl-1H-pyrazolo[3,4-d]pyrimidin-4-yl}azetidin-3-yl)carbamate] | – | – | < 2.11 nM | –
CCCCCC[C@@H]([C@@H](C)O)n1cnc2c(N)ncnc21 (racemic) [EHNA, erythro-9-(2-hydroxy-3-nonyl) adenine] | – | – | – | IC50 [5]: 1700 nM

Second part, led by results:

IC50 [2] | IC50 [4] | IC50 [3, 6] | Molecule | also measured
3.47 µM and 6.96 µM | 39.7 nM and 71.1 nM | – | CCc1ccc(-c2c(-c3nn(C)c4ncnc(N5CC[C@H](N6CCCCC6)C5)c34)cnn2C)cc1 [Example 56, 3-[5-(4-ethylphenyl)-1-methyl-1H-pyrazol-4-yl]-1-methyl-4-[(3S)-3-(piperidin-1-yl)pyrrolidin-1-yl]-1H-pyrazolo[3,4-d]pyrimidine] | selectivity ratio ([1]; probe midazolam): 87; selectivity ratio ([1]; probe testosterone): 98; inhibition at 0.316 µM ([3]; at 316 nM, single determination): 41%
– | – | < 1.31 nM | Cn1ncc(-c2nn(C)c3ncnc(N4CC(F)C4)c23)c1-c1ccc(C2CC2)cc1 [Example 3, 3-[5-(4-Cyclopropylphenyl)-1-methyl-1H-pyrazol-4-yl]-4-(3-fluoroazetidin-1-yl)-1-methyl-1H-pyrazolo[3,4-d]pyrimidine] | –
9.69 µM | 65.3 nM and 122 nM | – | Cc1ccc(-c2c(-c3nn(C)c4ncnc(N5CC[C@H](N6CCCCC6)C5)c34)cnn2C)cc1 [Example 2, 1-Methyl-3-[1-methyl-5-(4-methylphenyl)-1H-pyrazol-4-yl]-4-[(3S)-3-(piperidin-1-yl)pyrrolidin-1-yl]-1H-pyrazolo[3,4-d]pyrimidine] | –
